Data taken from PubChem BioAssay (NCI).
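Cells were grown in 96-well plates and exposed to each compound for 48 hours at five concentrations; endpoints were interpolated linearly between bracketing concentrations, or set to the highest concentration if not reached. TGI: total growth inhibition.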

How the values were obtained:
Assay in all cases: NCI-60 cell line screen, 48 h
A498 renal = system: A498 renal
ACHN renal = system: ACHN renal
COLO 205 colon = system: COLO 205 colon
HL-60(TB) leukemia = system: HL-60(TB) leukemia
HOP-92 NSCLC = system: HOP-92 NSCLC
HT29 colon = system: HT29 colon
IGROV1 ovarian = system: IGROV1 ovarian
MOLT-4 leukemia = system: MOLT-4 leukemia
NCI-H23 lung = system: NCI-H23 lung
RPMI-8226 leukemia = system: RPMI-8226 leukemia
SK-MEL-5 melanoma = system: SK-MEL-5 melanoma
SK-OV-3 ovarian = system: SK-OV-3 ovarian
SNB-75 CNS = system: SNB-75 CNS
SR leukemia = system: SR leukemia
UO-31 renal = system: UO-31 renal
HCT-15 colon = system: HCT-15 colon
U251 CNS = system: U251 CNS
MDA-MB-231 breast = system: MDA-MB-231 breast

CC(C)C1C(=O)NC(CO)Cc2c[nH]c3c(C(c4c[nH]c5ccccc45)C(O)CO)ccc(c23)N1C (centres undefined)
TGI (A498 renal): > 100 µM
TGI (ACHN renal): > 100 µM
TGI (COLO 205 colon): 38.6 µM
TGI (HL-60(TB) leukemia): > 100 µM
TGI (HOP-92 NSCLC): > 100 µM
TGI (HT29 colon): > 100 µM
TGI (IGROV1 ovarian): > 100 µM
TGI (MOLT-4 leukemia): > 100 µM
TGI (NCI-H23 lung): > 100 µM
TGI (RPMI-8226 leukemia): > 100 µM
TGI (SK-MEL-5 melanoma): > 100 µM
TGI (SK-OV-3 ovarian): > 100 µM
TGI (SNB-75 CNS): > 100 µM
TGI (SR leukemia): > 100 µM
TGI (UO-31 renal): > 100 µM

CCOc1cc2ccc3c4cc(OC)c(OC)cc4cnc3c2cc1OCC
TGI (A498 renal): > 100 µM
TGI (ACHN renal): > 100 µM
TGI (COLO 205 colon): > 100 µM
TGI (HCT-15 colon): > 100 µM
TGI (HT29 colon): > 100 µM
TGI (IGROV1 ovarian): > 100 µM
TGI (MOLT-4 leukemia): > 100 µM
TGI (NCI-H23 lung): > 100 µM
TGI (RPMI-8226 leukemia): > 100 µM
TGI (SK-MEL-5 melanoma): > 100 µM
TGI (SK-OV-3 ovarian): > 100 µM
TGI (SNB-75 CNS): > 100 µM
TGI (U251 CNS): > 100 µM
TGI (UO-31 renal): > 100 µM

N#CC(/C(=N\NC(=O)c1ccncc1)C(=O)Nc1ccc([N+](=O)[O-])cc1[N+](=O)[O-])c1nc(-c2ccc(Br)cc2)cs1 (centres undefined)
TGI (A498 renal): > 100 µM
TGI (ACHN renal): > 100 µM
TGI (COLO 205 colon): > 100 µM
TGI (HCT-15 colon): > 100 µM
TGI (HL-60(TB) leukemia): > 100 µM
TGI (IGROV1 ovarian): > 100 µM
TGI (MOLT-4 leukemia): > 100 µM
TGI (RPMI-8226 leukemia): > 100 µM
TGI (SK-MEL-5 melanoma): > 100 µM
TGI (SK-OV-3 ovarian): > 100 µM
TGI (SNB-75 CNS): > 100 µM
TGI (U251 CNS): > 100 µM
TGI (UO-31 renal): > 100 µM

Oc1cccc(-c2ccc3c4c2O[C@H]2c5[nH]c6ccccc6c5C[C@@]5(O)[C@@H](C3)N(CC3CC3)CC[C@]425)c1
TGI (ACHN renal): 3.67 µM
TGI (COLO 205 colon): 5.92 µM
TGI (HCT-15 colon): 3.03 µM
TGI (HL-60(TB) leukemia): 4.03 µM
TGI (HOP-92 NSCLC): 4.42 µM
TGI (HT29 colon): 3.09 µM
TGI (IGROV1 ovarian): 3.12 µM
TGI (MDA-MB-231 breast): 4.03 µM
TGI (NCI-H23 lung): 5.17 µM
TGI (SK-MEL-5 melanoma): 10.3 µM
TGI (UO-31 renal): 3.03 µM

O=C(/C=C/c1ccc(O)c(O)c1)OC1C[C@@](O)(C(=O)O)C[C@@H](O)[C@H]1OC(=O)/C=C/c1ccc(O)c(O)c1 (some centres undefined)
TGI (A498 renal): > 100 µM
TGI (ACHN renal): > 100 µM
TGI (COLO 205 colon): > 100 µM
TGI (HCT-15 colon): > 100 µM
TGI (HL-60(TB) leukemia): > 100 µM
TGI (HOP-92 NSCLC): > 100 µM
TGI (HT29 colon): > 100 µM
TGI (IGROV1 ovarian): > 100 µM
TGI (MOLT-4 leukemia): > 100 µM
TGI (NCI-H23 lung): > 100 µM
TGI (RPMI-8226 leukemia): > 100 µM
TGI (SK-MEL-5 melanoma): > 100 µM
TGI (SK-OV-3 ovarian): > 100 µM
TGI (SR leukemia): > 100 µM
TGI (U251 CNS): > 100 µM
TGI (UO-31 renal): > 100 µM

O=c1cc(-c2ccccc2)oc2cc(OCC(O)COc3ccc4c(=O)cc(-c5ccccc5)oc4c3)ccc12
TGI (A498 renal): > 100 µM
TGI (HCT-15 colon): > 100 µM
TGI (HL-60(TB) leukemia): > 100 µM
TGI (HOP-92 NSCLC): 95.5 µM
TGI (HT29 colon): > 100 µM
TGI (IGROV1 ovarian): > 100 µM
TGI (MOLT-4 leukemia): > 100 µM
TGI (NCI-H23 lung): > 100 µM
TGI (RPMI-8226 leukemia): > 100 µM
TGI (SK-MEL-5 melanoma): > 100 µM
TGI (SK-OV-3 ovarian): 76.7 µM
TGI (U251 CNS): 63.1 µM
TGI (UO-31 renal): > 100 µM

COc1ccc(/C=N/N=C(\N)NO)c(Cl)c1O
TGI (ACHN renal): > 100 µM
TGI (COLO 205 colon): > 100 µM
TGI (HCT-15 colon): > 100 µM
TGI (HOP-92 NSCLC): > 100 µM
TGI (IGROV1 ovarian): > 100 µM
TGI (MOLT-4 leukemia): > 100 µM
TGI (NCI-H23 lung): 63.7 µM
TGI (RPMI-8226 leukemia): > 100 µM
TGI (SK-MEL-5 melanoma): 40.6 µM
TGI (SK-OV-3 ovarian): > 100 µM
TGI (U251 CNS): > 100 µM
TGI (UO-31 renal): 54.1 µM
